# Laboratory results from patent US9289430B2, “Compounds and methods for inhibiting phosphate transport” (Ardelyx, Inc., priority 2010, dated 2016).
# Experiments:
# [1] = Stability in simulated gastric and intestinal fluid; format: in vitro ADME; details: 6 hr, 1-20 μM; for % remaining, SGF: simulated gastric fluid with 3 mg/mL pepsin; for % remaining, SIF: simulated intestinal fluid with 3 mg/mL pancreatin
# Protocol: Test compounds were incubated at 1-20 μM in simulated gastric fluid (SGF; standard USP solution with 3 mg/mL pepsin) or simulated intestinal fluid (SIF; standard USP solution with 3 mg/mL pancreatin) for 3 hr or 6 hr. HPLC-UV or HPLC-MS were used to determine test compound levels using peak area %. Results (Table 5) were reported as the percentage of test compound remaining after incubation in a given condition relative to test compound present at t=0 in the same condition.
# rat NaP2b (SLC34A2) = molecular target: T1, rat NaP2b (SLC34A2) (Rattus norvegicus, UniProt Q9JJ09); experiment: NaP2b-mediated Pi transport: 33P phosphate uptake into transfected HEK293 cells; format: cell-based; details: 100 uM KH2PO4, PiT-silencing agent, read-out: pIC50 range for rat Nap2b (converted)
# T1 construct: host or cells: HEK293
# T1 sequence (Q9JJ09 1-695): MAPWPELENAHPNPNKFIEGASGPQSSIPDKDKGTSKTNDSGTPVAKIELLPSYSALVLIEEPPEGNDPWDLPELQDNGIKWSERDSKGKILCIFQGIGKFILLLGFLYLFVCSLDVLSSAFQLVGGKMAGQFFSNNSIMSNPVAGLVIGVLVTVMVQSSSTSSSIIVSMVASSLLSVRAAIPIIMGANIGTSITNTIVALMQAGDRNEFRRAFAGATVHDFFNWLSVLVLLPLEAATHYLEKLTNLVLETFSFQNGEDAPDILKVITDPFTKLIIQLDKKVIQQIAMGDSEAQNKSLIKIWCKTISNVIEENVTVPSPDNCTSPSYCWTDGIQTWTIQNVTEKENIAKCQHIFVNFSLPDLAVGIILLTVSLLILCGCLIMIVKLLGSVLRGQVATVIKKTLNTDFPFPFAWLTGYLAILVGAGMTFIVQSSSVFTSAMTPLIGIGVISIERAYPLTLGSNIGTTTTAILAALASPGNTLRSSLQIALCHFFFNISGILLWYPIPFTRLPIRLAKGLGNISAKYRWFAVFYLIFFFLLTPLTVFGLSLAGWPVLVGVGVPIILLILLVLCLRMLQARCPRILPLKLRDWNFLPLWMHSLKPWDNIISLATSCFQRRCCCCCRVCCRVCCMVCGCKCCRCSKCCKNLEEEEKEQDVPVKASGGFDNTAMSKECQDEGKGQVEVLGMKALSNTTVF
# human NaP2b (SLC34A2) = molecular target: T2, human NaP2b (SLC34A2) (Homo sapiens, UniProt O95436); experiment: as above; format: cell-based; details: human protein with threonine inserted after residue 37 and N39D, 100 uM KH2PO4, read-out: pIC50 range for human Nap2b (converted)
# T2 construct: host or cells: HEK293
# T2 sequence (O95436 1-690): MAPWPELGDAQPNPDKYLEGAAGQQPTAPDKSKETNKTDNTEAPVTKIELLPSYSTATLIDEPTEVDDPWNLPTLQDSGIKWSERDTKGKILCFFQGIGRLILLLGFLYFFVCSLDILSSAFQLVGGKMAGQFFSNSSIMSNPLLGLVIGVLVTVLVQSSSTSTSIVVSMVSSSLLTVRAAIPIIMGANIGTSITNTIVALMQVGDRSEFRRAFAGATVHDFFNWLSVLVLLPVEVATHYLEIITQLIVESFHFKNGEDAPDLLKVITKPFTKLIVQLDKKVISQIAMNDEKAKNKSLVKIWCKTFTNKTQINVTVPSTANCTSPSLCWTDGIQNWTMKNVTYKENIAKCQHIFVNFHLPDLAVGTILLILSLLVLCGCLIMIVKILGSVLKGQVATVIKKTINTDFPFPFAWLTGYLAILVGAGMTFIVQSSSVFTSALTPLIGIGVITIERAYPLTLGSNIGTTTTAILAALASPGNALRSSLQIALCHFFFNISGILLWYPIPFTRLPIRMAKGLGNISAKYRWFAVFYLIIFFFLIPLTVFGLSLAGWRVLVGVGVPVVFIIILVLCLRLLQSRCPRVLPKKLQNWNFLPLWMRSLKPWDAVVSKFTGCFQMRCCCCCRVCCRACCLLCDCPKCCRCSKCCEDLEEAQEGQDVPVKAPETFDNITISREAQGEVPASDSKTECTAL
# Outline: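 Transiently transfected HEK293 cells, human clone carrying Thr insertion after residue 37 and N39D; PiT transport silenced pharmacologically. ^33P-phosphate uptake in sodium buffer (100 uM KH2PO4, pH 7.4) versus choline buffer, 3-30 min at room temperature, twelve concentrations 0.1 nM–30 uM in duplicate; scintillation counting, pIC50 derived.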
# [2] = Fecal recovery of orally administered compounds; format: in vivo, Sprague-Dawley rats; details: rats, oral gavage, nominal 10 mg/kg (actual 7.6-11 mg/kg), feces 0-48 hr after dosing
# Protocol: Quantitative determination of test compound level in feces after oral gavage was performed using the same set of animals used to determine test compound concentration in plasma (Example 30). The animals were kept in metabolic cages and feces were collected from the time of dosing until 48 hr after dosing. Upon collection, feces was dried by lyophilization and ground to a visually homogenous powder. Duplicate samples of ground feces from each individual animal were weighed out and extracted using organic solvent. Extracted samples were then diluted into mobile phase and test compound levels were quantitatively determined by LC-MS/MS analysis as described in “Example 30” except that the standard curve was prepared in a feces matrix. Extraction conditions were not optimized for individual compounds, and thus may represent a minimal level of recovery.
IC50 (rat NaP2b (SLC34A2)),IC50 (human NaP2b (SLC34A2)),% recovered in feces [2],SMILES,"% remaining, SGF [1]","% remaining, SIF [1]"
< 1000 nM,< 1000 nM,9.5%,"O=C(O)CCOCCOCCOCCNC(=O)Cc1cccc(SCc2cccc(C(=O)Nc3ccc(N4CCCCC4)cc3C(=O)Nc3ccn(-c4cccc(C(F)(F)F)c4)n3)c2)c1 [Example 26, 2-Oxo-1-(3-((3-((4-(piperidin-1-yl)-2-((1-(3-(trifluoromethyl)phenyl)-1H-pyrazol-3-yl)carbamoyl)phenyl)carbamoyl)benzyl)thio)phenyl)-6,9,12-trioxa-3-azapentadecan-15-oic acid]",91%,95%
< 1000 nM,< 1000 nM,47%,"CN(CCN1CCOCC1)C(=O)c1cccc(C(=O)Nc2ccc(N3CCCCC3)cc2C(=O)Nc2ccn(-c3cccc(C(F)(F)F)c3)n2)c1 [Example 11, N1-Methyl-N1-(2-morpholinoethyl)-N3-(4-(piperidin-1-yl)-2-((1-(3-(trifluoromethyl)phenyl)-1H-pyrazol-3-yl)carbamoyl)phenyl)isophthalamide]",–,–

SMILES,IC50 (rat NaP2b (SLC34A2)),IC50 (human NaP2b (SLC34A2)),% recovered in feces [2],"% remaining, SGF [1]","% remaining, SIF [1]"
"CN(CCN1CCOCC1)C(=O)c1cccc(C(=O)Nc2ccc(Cl)cc2C(=O)Nc2ccn(-c3cccc(C(F)(F)F)c3)n2)c1 [Example 14, N1-(4-Chloro-2-((1-(3-(trifluoromethyl)phenyl)-1H-pyrazol-3-yl)carbamoyl)phenyl)-N3-methyl-N3-(2-morpholinoethyl)isophthalamide 2,2,2-trifluoroacetate]",< 1000 nM,< 1000 nM,6.6%,93%,72%
